Data from the supplement of paper PMC8671470.

How the values were obtained:
Conditions in all cases: 72 h
BV-173 [1] = system: BV-173
Outline: (§1)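 Fifteen myeloid leukaemia lines in RPMI 1640 were treated for 72 h at 37 °C and 5% CO2 with five tenfold doses from 1 to 10,000 nM, in duplicate. ATP luminescence was normalised to vehicle and to a positive control at 10 µM, then fitted with a four-parameter log-logistic model. The IC50 came from these fits.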

HEL [2] = system: HEL
Outline: as §1

HL-60 [3] = system: HL-60
Outline: as §1

K-562 [4] = system: K-562
Outline: as §1

KCL-22 [5] = system: KCL-22
Outline: as §1

KG-1 [6] = system: KG-1
Outline: as §1

KU-812 = system: KU-812
Outline: as §1

LAMA-84 [7] = system: LAMA-84
Outline: as §1

ML-2 [8] = system: ML-2
Outline: as §1

MOLM-13 = system: MOLM-13
Outline: as §1

MV4-11 [9] = system: MV4-11
Outline: as §1

Mono-Mac-6 [10] = system: Mono-Mac-6
Outline: as §1

NOMO-1 = system: NOMO-1
Outline: as §1

SHI-1 [11] = system: SHI-1
Outline: as §1

THP-1 = system: THP-1
Outline: as §1

HL-60 [12] = test: cell viability (% survival relative to DMSO control); higher = less cytotoxic
Outline: (§2)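 For each screen, HL-60 cells in RPMI 1640 with 10% FBS carried either DMSO or 100 nM of one of three metabolic inhibitors while the full library was applied at five tenfold concentrations, 1–10,000 nM, in duplicate. Plates were 384-well and were kept 72 h at 37 °C, 5% CO2. Viability, measured by CellTiter-Glo, was normalised to wells with DMSO and with 10 μM proteasome inhibitor. Where area under the curve appears, it was fitted by four-parameter log-logistic models in drc and PharmacoGx.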

BV-173 [13] = test: cell viability (% survival relative to DMSO control, bortezomib = 0%); higher = less cytotoxic
Outline: (§3)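 Fifteen myeloid leukaemia cell lines were exposed to compounds at 1, 10, 100, 1000 or 10000 nM in 384-well plates for 72 h at 37 °C and 5% CO2. Viability was read by CellTiter-Glo luminescence and normalised, with vehicle as 100% and a 10 µM positive control as 0%. Values are percent survival averaged over duplicates.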

HEL [14] = test: as above
Outline: as §3

HL-60 [15] = test: as above
Outline: as §3

K-562 [16] = test: as above
Outline: as §3

KCL-22 [17] = test: as above
Outline: as §3

KG-1 [18] = test: as above
Outline: as §3

LAMA-84 [19] = test: as above
Outline: as §3

ML-2 [20] = test: as above
Outline: as §3

MV4-11 [21] = test: as above
Outline: as §3

Mono-Mac-6 [22] = test: as above
Outline: as §3

SHI-1 [23] = test: as above
Outline: as §3

HL-60 [24] = test: area under dose-response curve (viability, 1 nM-10 uM) (fraction (0-1)); higher = more sensitive
Outline: as §2

CC(=O)N[C@@H](CS)C(=O)O [Acetylcysteine]
Conditions | IC50 (cell viability) [µM]
BV-173 [1] | > 10
HEL [2] | > 10
HL-60 [3] | > 10
K-562 [4] | > 10
KCL-22 [5] | > 10
KG-1 [6] | > 10
KU-812 | > 10
LAMA-84 [7] | > 10
ML-2 [8] | > 10
MOLM-13 | > 10
MV4-11 [9] | > 10
Mono-Mac-6 [10] | > 10
NOMO-1 | > 10
SHI-1 [11] | > 10
THP-1 | > 10

cell viability [%], HL-60 [12]
Conditions | 0.001 µM | 0.01 µM | 0.1 µM | 1 µM | 10 µM
co-treatment: AZD3965 100 nM | 99.1 | 99.8 | 105 | 102 | 91.6
co-treatment: DMSO vehicle | 94.2 | 101.13 | 104 | 96.1 | 93.7
co-treatment: GSK2194069 100 nM | 97.8 | 103 | 106 | 101 | 91.4
co-treatment: pictilisib 100 nM | 103 | 101.2 | 106 | 101 | 86.3

Conditions | area under dose-response curve, co-treatment: AZD3965 100 nM | area under dose-response curve, co-treatment: DMSO vehicle | area under dose-response curve, co-treatment: GSK2194069 100 nM | area under dose-response curve, co-treatment: pictilisib 100 nM | cell viability, 1 nM [%] | cell viability, 10 nM [%] | cell viability, 100 nM [%] | cell viability, 1000 nM [%] | cell viability, 10000 nM [%]
BV-173 [13] | – | – | – | – | 109 | 96.7 | 92.2 | 98.9 | 95.2
HEL [14] | – | – | – | – | 110 | 90.4 | 90 | 113 | 104
HL-60 [15] | – | – | – | – | 107 | 93.1 | 93.5 | 125 | 122
HL-60 [24] | < 0.0301 | < 0.0301 | < 0.0301 | < 0.0301 | – | – | – | – | –
K-562 [16] | – | – | – | – | 106 | 97.9 | 77.2 | 96.2 | 103
KCL-22 [17] | – | – | – | – | 117 | 92.8 | 102 | 93.3 | 97.6
KG-1 [18] | – | – | – | – | 113 | 98.3 | 101 | 88.9 | 101
LAMA-84 [19] | – | – | – | – | 96.2 | 96.8 | 88 | 101 | 101
ML-2 [20] | – | – | – | – | 104 | 91.3 | 97.3 | 89.2 | 102
MV4-11 [21] | – | – | – | – | 112 | 102 | 102 | 111 | 112
Mono-Mac-6 [22] | – | – | – | – | 114 | 96.3 | 97 | 100 | 105
SHI-1 [23] | – | – | – | – | 100 | 96.5 | 105 | 97.2 | 110

CCCCC/C=C\C/C=C\C/C=C\C/C=C\CCCC(=O)C(F)(F)F [Arachidonyl trifluoromethyl ketone]
Conditions | IC50 (cell viability) [µM]
BV-173 [1] | > 10
HEL [2] | > 10
HL-60 [3] | > 10
K-562 [4] | > 10
KCL-22 [5] | > 10
KG-1 [6] | > 10
KU-812 | > 10
LAMA-84 [7] | > 10
ML-2 [8] | > 10
MOLM-13 | > 10
MV4-11 [9] | > 10
Mono-Mac-6 [10] | 7.99
NOMO-1 | > 10
SHI-1 [11] | > 10
THP-1 | > 10

cell viability [%], HL-60 [12]
Conditions | 0.001 µM | 0.01 µM | 0.1 µM | 1 µM | 10 µM
co-treatment: AZD3965 100 nM | 101 | 104 | 101 | 91.8 | 98.3
co-treatment: DMSO vehicle | 96.7 | 102 | 101 | 101 | 101
co-treatment: GSK2194069 100 nM | 88.4 | 101 | 108 | 89.7 | 56.72
co-treatment: pictilisib 100 nM | 99.6 | 104 | 102 | 81.4 | 96.6

Conditions | area under dose-response curve, co-treatment: AZD3965 100 nM | area under dose-response curve, co-treatment: DMSO vehicle | area under dose-response curve, co-treatment: GSK2194069 100 nM | area under dose-response curve, co-treatment: pictilisib 100 nM | cell viability, 1 nM [%] | cell viability, 10 nM [%] | cell viability, 100 nM [%] | cell viability, 1000 nM [%] | cell viability, 10000 nM [%]
BV-173 [13] | – | – | – | – | 103 | 96.6 | 95.7 | 92 | 76.6
HEL [14] | – | – | – | – | 97.5 | 89.6 | 118 | 98.8 | 80.8
HL-60 [15] | – | – | – | – | 98.9 | 100 | 108 | 93.9 | 96.5
HL-60 [24] | < 0.0301 | < 0.0301 | 0.0624 | < 0.0301 | – | – | – | – | –
K-562 [16] | – | – | – | – | 101 | 96.1 | 104 | 96.8 | 90.6
KCL-22 [17] | – | – | – | – | 96.9 | 103 | 105 | 97.2 | 87.5
KG-1 [18] | – | – | – | – | 90.8 | 102 | 92.6 | 90 | 47.7
LAMA-84 [19] | – | – | – | – | 106 | 95.5 | 77.6 | 85.8 | 79.5
ML-2 [20] | – | – | – | – | 98.9 | 98.3 | 111 | 99.2 | 77.8
MV4-11 [21] | – | – | – | – | 99.4 | 99.8 | 101 | 97.6 | 85.9
Mono-Mac-6 [22] | – | – | – | – | 98.5 | 97.9 | 102 | 80.7 | 57.7
SHI-1 [23] | – | – | – | – | 99 | 101 | 103 | 96.9 | 104
